{"source": "patent US10377731B2", "about": "“Compositions and methods for cancer treatment” (Boston Biomedical, Inc., priority 2007, dated 2019)", "key": {"[1]": {"test_system": "Paca2 human pancreatic cancer cells", "experiment": "Colony formation, Paca2 cells, single drugs and combinations", "assay_type": "cell-based", "procedure": "(§1) Paca2 human pancreatic cancer cells, A549 human lung cancer cells, and HepG2 human liver cancer cells (American Type Culture Collection) were cultured in Dulbecco's modified Eagle's medium containing 10% fetal bovine serum, 100 units/mL penicillin, 100 μg/mL streptomycin, and 2 mM L-glutamine. […] Erlotinib was from American Custom Chemicals (San Diego, Calif.). Gemcitabine was from Eli Lilly (Indianapolis, Ind.) in an aqueous 20 mM stock solution. Sorafenib was Mass.). Unless otherwise noted all compounds were solubilized in DMSO at 10 mM and aliquoted at −20° C. Exponentially growing Paca2 pancreatic cancer cells were seeded at 1,000 cells per well in 6-well plates and allowed to attach for 24 hours. Increasing concentrations of individual drugs and those in combination were then added to the media for another 24 hours. After 24 hours exposure, the drug was removed and fresh media was added for the next 10-14 days, allowing for colony formation. Cells were fixed and stained with GIEMSA (Gibco BRL). […] Results are an average of duplicate experiments. Alternatively, MTT assays were performed 72 hours post-treatment in A549 and HepG2 cells."}, "Stat3 [2]": {"test_system": "Stat3", "experiment": "Stat3-luciferase (Stat3-Luc) reporter assay, OSM-stimulated HeLa cells", "assay_type": "cell-based", "conditions": "for IC50: Homo sapiens, HeLa cells, compound 30 minutes before 25 ng/ml oncostatin M, read 6 hours later, read-out: IC50 in Stat3-Luc assays", "procedure": "Luciferase Reporter Assay: HeLa Cells were co-transfected with Stat3-luciferase (Stat3-Luc) reporter vector (Panomics, Fremont, Calif.) and Renilla luciferase (Promega, Madison, Wis.) using Lipofectamine 2000 as described by the manufacturer (Invitrogen). Following transfection, cells were maintained in medium containing 0.5% FBS for 24 hours. Cells were then treated with the indicated compound for 30 minutes prior to the addition of 25 ng/ml oncostatin M (OSM) (R&D Systems, Minneapolis, Minn.) to the medium. 6 hours following OSM addition, cells were harvested and levels of firefly and renilla luciferase were measured using the Dual-Glo Luciferase Assay System as described by the manufacturer (Promega).\nInhibition of Stat3 transcription activity. Compounds were tested for their ability to inhibit Stat3 transcription activation activity in cells using a Stat3-luciferase (Stat3-luc) reporter construct. Cells transfected with Stat3-luc were cultured in reduced serum medium prior to addition of indicated compound for 30 minutes. Cells were then stimulated with 25 ng/ml oncostatin M (OSM) for 6 hours followed by detection of Stat3-luc reporter activity. […] AG490, a known inhibitor of the Jak-Stat pathway, was included as a positive control for Stat3 inhibition."}, "Stat3 [3]": {"test_system": "Stat3", "experiment": "Stat3 DNA binding assay (EMSA), HeLa nuclear extract", "assay_type": "biochemical", "conditions": "HeLa nuclear extract with constitutively activated Stat3", "procedure": "STAT3 DNA Binding Assay: Electrophoretic mobility shift assay (EMSA) was performed as described by the manufacturer (Li-Cor Biosciences, Lincoln, Nebr.). Briefly, nuclear extracts were made from HeLa cells using the NucBuster Protein Extraction Kit as described by the manufacturer (EMD Biosciences, San Diego, Calif.). 5 μg of nuclear extract was pre-incubated with the indicated dose of indicated compound for 30 minutes prior to a 15-minute incubation with the IR700-labeled consensus Stat3 oligonucleotide. Samples were then electrophoresed on a polyacrylamide gel and directly scanned using the Odyssey infrared imaging system (Li-Cor Biosciences). For the enzyme-linked immunosorbent assay (ELISA), 5 μg of nuclear extract was preincubated with indicated concentration of indicated compound for 30 minutes prior to the addition of biotinylated oligo (5′-Biotin-[…]-3′ SEQ ID NO. 1). Stat3-DNA complexes were then captured on streptavidin coated 96 well plates (Pierce, Rockford, Ill.). Bound complexes were then incubated with Stat3 polyclonal antibody (Santa Cruz Biotechnology, Santa Cruz, Calif.) followed by anti-rabbit HRP conjugated secondary antibody (GE Healthcare, Pittsburgh, Pa.). Bound antibody was then visualized by addition of TMB substrate (Pierce) and absorbance measured at 450 nm.\nInhibition of Stat3 DNA-binding activity. Nuclear extracts from HeLa cells, which contain constitutively activated Stat3 as detected by phosphorylation at the tyrosine 705 residue, were used to perform Stat3 EMSAs to monitor Stat3 DNA binding activity. Nuclear extracts were incubated with indicated compound prior to incubation with IR700-labeled Stat3 consensus oligonucleotide. Binding of Stat3 to the oligonucleotide was monitored by gel electrophoresis and detection using a LiCor Odyssey infrared scanner."}, "CD44high CSCs (FaDu)": {"test_system": "CD44high CSCs (FaDu)", "experiment": "Sphere assay (CSC spherogenesis)", "assay_type": "cell-based, human", "conditions": "applied at approximately ten times their IC50 concentrations for cell death", "procedure": "CD44^high cells were isolated by FACS according to the methods described in Ponti et al, with slight modification. Briefly, after trypsinization and recovery of cells for 30 minutes at 37° C. in growth media, cells were pelleted at 400×g and were resuspended in PBS with 2% FBS and 1 mM EDTA at 1×10^6 cells/mL. Cells were then incubated on ice with a 1:100 dilution of CD44-FITC (BD Biosicences, San Diego, Calif.) for 15 minutes. Alternatively, CD24-PE (BD Bioscences, San Diego, Calif.) (1:100) was utilized for negative selection. After washing three times, cells were resuspended at 2×10^6/mL and passed through a […] mesh before sorting\nSphere assay: A reliable method of measuring the self-renewal capacity of cell population if the ability to be cultured as spheres in the absence of serum or attachment. CD44^high FaDu or Hoechst side population cancer stem cells were cultured in ultra low attachment plates in cancer stem cell media (DMEM/F12, B27 Neurobasal supplement, 20 ng/ml EGF, 10 ng/ml FGF, 4 μg/ml insulin, and 0.4% BSA) to allow spheres formation. Typically, sphere formation was evaluated by microscopy after 10-14 days in culture and spheres with >50 cells were scored.\nIdentification of compounds that inhibit CSC spherogenesis in vitro. One of the hallmarks of cancer stem cells is their ability to self-renew. A reliable method of measuring the self-renewal capacity of cell populations is the ability to be cultured as spheres in the absence of serum or attachment. To compare the ability of compound 401 to other targeted and chemotherapeutic agents, FACS-isolated CD44^high CSCs were grown as spheres for 72 hours before being challenged with a panel of therapeutic agents. […] Tarceva, Sutent, and Gleevec were added at approximately three times their reported therapeutic concentrations."}, "[4]": {"test_system": "HepG2 human liver cancer cells", "experiment": "72 hour MTT, HepG2 cells, single drugs and combinations", "assay_type": "cell-based", "procedure": "(§2) Cell Viability Determination: For 3-(4,5 dimethylthiazol-2-yl)-2,5-diphenyltetrazolium (MTT) (Sigma-Aldrich, St. Louis, Mo.) analysis, cells were plated in 96 well plates at 10,000 cells per well. 24 hours after plating, compound was added to cells at indicated doses. […] following compound addition, MTT was added to each well (0.5 mg/ml, final concentration) and plates were incubated for an additional 2 hours at 37° C. Medium was then aspirated and the formazan product was solubilized in 100 μl of isopropyl alcohol. The absorbance of each well was measured at 570 nm using a microplate reader.\nas §1"}, "[5]": {"test_system": "A549 human lung cancer cells", "experiment": "72 hour MTT, A549 cells, single drugs and combinations", "assay_type": "cell-based", "conditions": "for inhibition at 2.5 µM: read-out: X (% Inhibition)", "procedure": "as §2, §1"}, "[6]": {"conditions": "72 hour MTT A549 cells, X alone 2.5 μM"}}, "note": "Like-named read-outs stand apart in the source and are kept apart here."}
{"smiles": "N.N.O=C([O-])C1(C(=O)[O-])CCC1.[Pt+2]", "note": "[Carboplatin]", "values": [{"measurement": "X (% Inhibition)", "setting": "[1]; X alone 16 μM", "result": 43, "unit": "%"}]}
{"smiles": "CC(O)c1cc2c(o1)C(=O)c1ccccc1C2=O", "note": "(stereo not shown) [Compound 301, 2-(1-hydroxyethyl)-naphtho[2,3-b]furan-4,9-dione]", "values": [{"measurement": "IC50", "setting": "Stat3 [2]", "result": "~2000", "unit": "nM"}]}
{"smiles": "CC(=O)c1cc2c(o1)C(=O)c1cc(Cl)ccc1C2=O", "note": "[Compound 416, 2-Acetyl-7-Chloro-naphtho[2,3-b]furan-4,9-dione]", "values": [{"measurement": "IC50", "setting": "Stat3 [2]", "result": "~750", "unit": "nM"}, {"measurement": "Inhibition of Stat3 DNA-binding activity (in words)", "setting": "Stat3 [3]", "result": "can inhibit"}]}
{"smiles": "CC(=O)c1cc2c(o1)C(=O)c1cc(F)ccc1C2=O", "note": "[Compound 418, 2-Acetyl-7-Fluoro-naphtho[2,3-b]furan-4,9-dione]", "values": [{"measurement": "IC50", "setting": "Stat3 [2]", "result": "~750", "unit": "nM"}, {"measurement": "Inhibition of Stat3 DNA-binding activity (in words)", "setting": "Stat3 [3]", "result": "can inhibit"}]}
{"smiles": "O=C(c1ccccc1)c1cc2cc3ccccc3cc2s1", "note": "[Compound 1001, reference compound]", "values": [{"measurement": "Inhibition of OSM-stimulated Stat3 reporter activity (in words)", "setting": "Stat3 [2]; at a much higher concentration (FIG. 4, right panel)", "result": "did not inhibit"}]}
{"smiles": "CC(=O)O[C@@]12CO[C@@H]1C[C@H](O)[C@@]1(C)C(=O)[C@H](O)C3=C(C)[C@@H](OC(=O)[C@H](O)[C@@H](NC(=O)OC(C)(C)C)c4ccccc4)C[C@@](O)([C@@H](OC(=O)c4ccccc4)[C@H]21)C3(C)C", "note": "[Docetaxel, reference compound]", "values": [{"measurement": "Effect on CSC sphere proliferation", "setting": "CD44high CSCs (FaDu)", "result": "resistant"}, {"measurement": "inhibition at 0.00033 µM", "setting": "[1]; Homo sapiens, PaCa-2, X alone 0.33 nM", "result": 48, "unit": "%"}]}
{"smiles": "COc1cccc2c1C(=O)c1c(O)c3c(c(O)c1C2=O)C[C@@](O)(C(=O)CO)C[C@@H]3O[C@H]1C[C@H](N)[C@H](O)[C@H](C)O1", "note": "[Doxorubicin]", "values": [{"measurement": "Effect on CSC sphere proliferation", "setting": "CD44high CSCs (FaDu)", "result": "resistant"}, {"measurement": "inhibition at 0.0125 µM", "setting": "[4]; X alone 12.5 nM", "result": 23, "unit": "%"}, {"measurement": "inhibition at 0.016 µM", "setting": "[1]; Homo sapiens, PaCa-2, X alone 16 nM", "result": 89, "unit": "%"}, {"measurement": "inhibition at 0.0125 µM", "setting": "[5]; 72 hour MTT A549 cells, X alone 12.5 nM", "result": 29, "unit": "%"}]}
{"smiles": "C#Cc1cccc(Nc2ncnc3cc(OCCOC)c(OCCOC)cc23)c1", "note": "[Erlotinib]", "values": [{"measurement": "inhibition at 16 µM", "setting": "[1]; Homo sapiens, PaCa-2, X alone 16 μM", "result": 26, "unit": "%"}, {"measurement": "inhibition at 2.5 µM", "setting": "[5]; A549, 72 h", "result": 43, "unit": "%"}]}
{"smiles": "COc1cc([C@@H]2c3cc4c(cc3[C@@H](O[C@@H]3O[C@@H]5CO[C@@H](C)O[C@H]5[C@H](O)[C@H]3O)[C@H]3COC(=O)[C@H]23)OCO4)cc(OC)c1O", "note": "[Etoposide]", "values": [{"measurement": "inhibition at 0.66 µM", "setting": "[1]; Homo sapiens, PaCa-2, X alone 660 nM", "result": 58, "unit": "%"}]}
{"smiles": "Nc1ccn([C@@H]2O[C@H](CO)[C@@H](O)C2(F)F)c(=O)n1", "note": "[Gemcitabine]", "values": [{"measurement": "inhibition at 0.033 µM", "setting": "[1]; Homo sapiens, PaCa-2, X alone 33 nM", "result": 36, "unit": "%"}]}
{"smiles": "CS(=O)(=O)CCNCc1ccc(-c2ccc3ncnc(Nc4ccc(OCc5cccc(F)c5)c(Cl)c4)c3c2)o1", "note": "[Lapatinib]", "values": [{"measurement": "inhibition at 6.75 µM", "setting": "[1]; Homo sapiens, PaCa-2, X alone 6.75 μM", "result": 27, "unit": "%"}, {"measurement": "inhibition at 2.5 µM", "setting": "[5]; [6]", "result": 66, "unit": "%"}]}
{"smiles": "CNC(=O)c1cc(Oc2ccc(NC(=O)Nc3ccc(Cl)c(C(F)(F)F)c3)cc2)ccn1", "note": "[Sorafenib]", "values": [{"measurement": "inhibition at 0.625 µM", "setting": "[4]; X alone 625 nM", "result": 34, "unit": "%"}, {"measurement": "inhibition at 2.5 µM", "setting": "[4]; X alone 2.5 μM", "result": 51, "unit": "%"}, {"measurement": "inhibition at 2 µM", "setting": "[1]; Homo sapiens, PaCa-2, X alone 2 μM", "result": 66, "unit": "%"}, {"measurement": "inhibition at 2.5 µM", "setting": "[5]; [6]", "result": 40, "unit": "%"}]}
{"smiles": "CCN(CC)CCNC(=O)c1c(C)[nH]c(/C=C2\\C(=O)Nc3ccc(F)cc32)c1C", "note": "[Sunitinib]", "values": [{"measurement": "inhibition at 12 µM", "setting": "[1]; Homo sapiens, PaCa-2, X alone 12 μM", "result": 52, "unit": "%"}, {"measurement": "inhibition at 2.5 µM", "setting": "[5]; [6]", "result": 75, "unit": "%"}]}
